Six compounds from ChEMBL document CHEMBL4251742, “Modulating ADME Properties by Fluorination: MK2 Inhibitors with Improved Oral Exposure” (ACS Med Chem Lett, 2018) can be followed below.

Converted amounts (≈) assume the structure as drawn.

Data set [1] concerns the target T1, MAP kinase-activated protein kinase 2 (Homo sapiens, UniProt P49137). The data set is described as follows: Inhibition of human MK2 using hsp27 peptide biotinyl-AYSRALSRQLSSGVSEIRCOOH as substrate after 45 mins by TR-FRET assay. In general terms: Time-resolved FRET reads energy transfer from a long-lived donor to a nearby acceptor.
For data set [2], the target named is T1, MAP kinase-activated protein kinase 2. Put plainly: Inhibition of MK2 in anisomycin-stimulated human THP1 cells assessed as reduction in hsp27 phosphorylation at Ser78 by FACS analysis.
Data set [3] is described as follows: Permeability of the compound by PAMPA. Type of data set: ADME. In general terms: PAMPA measures passive passage across an artificial lipid membrane.
Data set [4] in a line: Lipophilicity, log D of compound at pH 7.4. The following applies: buffer.
The nature of data set [5]: (§1) Oral bioavailability in Sprague-Dawley rat at 3 mg/kg administered as single cassette dose by LC-MS/MS analysis. Type of data set: ADME, organism-based. The following applies: Sprague-Dawley, in vivo.
Data set [6] concerns Rattus norvegicus. Put plainly: Dose normalized AUC in Sprague-Dawley rat at 3 mg/kg, po administered as single cassette dose by LC-MS/MS analysis. The following applies: in vivo. The class given is ADME, organism-based.
Data set [7] can be described thus: Clearance in Sprague-Dawley rat at 1 mg/kg, iv administered as single cassette dose by LC-MS/MS analysis. Type of data set: ADME, organism-based. The following applies: in vivo.
In a further data set the test system is PBMC. Put plainly: cells. The following applies: Homo sapiens.
The next data set concerns Blood. Put plainly: tissue or blood. The following applies: Homo sapiens.
For data set [8], the system named is Rattus norvegicus. The description is as §1. Type of data set: ADME, organism-based. The following applies: in vivo.
The nature of data set [9]: Oral bioavailability in Sprague-Dawley rat at 3 mg/kg administered as single cassette dose measured over 8 hrs by LC-MS/MS analysis. The class given is ADME, organism-based. The following applies: in vivo.
In data set [10] the test system is Rattus norvegicus. Put plainly: Dose normalized AUC in Sprague-Dawley rat at 3 mg/kg, po administered as single cassette dose measured over 8 hrs by LC-MS/MS analysis. The class given is ADME, organism-based. The following applies: in vivo.
Data set [11] can be described thus: Clearance in Sprague-Dawley rat at 1 mg/kg, iv administered as single cassette dose measured over 8 hrs by LC-MS/MS analysis. The following applies: in vivo. The class given is ADME, organism-based.
Data set [12] can be described thus: Aqueous solubility of the compound. Type of data set: physicochemical. The following applies: buffer.

T1 sequence (P49137 whole entry): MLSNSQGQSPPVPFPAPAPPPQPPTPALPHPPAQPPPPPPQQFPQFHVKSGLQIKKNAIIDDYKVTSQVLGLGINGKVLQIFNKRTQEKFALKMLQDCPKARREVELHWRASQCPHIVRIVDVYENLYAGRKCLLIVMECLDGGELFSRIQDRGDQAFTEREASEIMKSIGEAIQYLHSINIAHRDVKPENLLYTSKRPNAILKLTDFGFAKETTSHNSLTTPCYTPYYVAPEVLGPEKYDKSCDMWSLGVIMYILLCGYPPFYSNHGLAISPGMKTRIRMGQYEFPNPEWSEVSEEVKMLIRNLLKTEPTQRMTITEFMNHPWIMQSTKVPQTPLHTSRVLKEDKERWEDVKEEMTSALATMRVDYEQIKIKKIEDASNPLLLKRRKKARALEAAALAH

Take `COc1ccc(-c2ncc3c(c2F)-c2[nH]c4c(c2CC3)C(=O)NCC42CN(C)C2)cn1`: the IC50 (usually the point on the concentration scale where inhibition reaches its midpoint) was < 3 nM in [1], 480 nM in data set [2], 490 nM with PBMC and 590 nM in the data set with Blood. In addition, in data set [3], the “log(permeability)” value was -4.8. Moreover, the pH-dependent lipophilicity (logD) (as a rule, the decadic logarithm of the distribution of all forms, ionised or not, between an organic phase and buffer at a given pH) in data set [4] is 2.8. Further, the bioavailability – broadly, the share of a dose that reaches the circulation, judged against a reference dose that is usually intravenous – in data set [5] is 77%. This compound had an AUC/dose with Rattus norvegicus [6] of 1766 nmol·h/L. The clearance (as a rule, the volume of plasma or blood freed of the substance per unit of time) in [7] was 19 mL/min/kg.
Regarding `CN1CC2(CNC(=O)c3c2[nH]c2c3CCc3cnc(-c4cccc(F)c4)nc3-2)C1`, the “log(permeability)” value in [3] was -4.6. Besides, the F with Rattus norvegicus [8] is 151%. Moreover, in the data set on Rattus norvegicus [6], the AUC/dose came to 2154 nmol·h/L. In [7], this compound came in with a clearance of 30 mL/min/kg.
As to `CN1CC2(CNC(=O)c3c4c(n(C)c32)-c2cc(-c3cccc(Cl)c3)ncc2CC4)C1`, the “log(permeability)” value in data set [3] is reported as -3.9. The compound also returned a pH-dependent lipophilicity (logD) in data set [4] of 3.7. In data set [9], this compound showed a bioavailability of 53%. Further, the AUC/dose in the data set with Rattus norvegicus [10] came to 2415 nmol·h/L. This compound also yielded a clearance in [11] of 10 mL/min/kg.
In the case of `CN1CC2(CNC(=O)c3c2[nH]c2c3CCc3cnc(-c4cccc(F)c4)cc3-2)C1`, in data set [12], the solubility (usually the concentration that dissolves in the medium under given conditions) was found to be 32 µg/mL (≈ 82.4 µM). Also, in [3], the “log(permeability)” value was -5.2. In data set [4], this compound showed a logD of 3.4. The bioavailability in data set [5] stood at 27%. The same compound gave an AUC/dose with Rattus norvegicus [6] of 121 nmol·h/L. This compound returned a clearance in data set [7] of 100 mL/min/kg. In the data set with Blood, the half-inhibitory concentration (IC50) amounted to 670 nM.
For the compound `COc1ccc(-c2ncc3c(c2F)-c2[nH]c4c(c2CC3)C(=O)NCC42CN(C)C2)cc1F`, the “log(permeability)” value in data set [3] is recorded as -4.5. For the same compound, the pH-dependent lipophilicity (logD) in data set [4] turned out to be 3.3. In data set [5], this compound displayed a bioavailability of 60%. Further, the AUC/dose in the data set with Rattus norvegicus [6] was determined as 1301 nmol·h/L. The compound also showed a clearance in data set [7] of 20 mL/min/kg. The half-maximal inhibitory concentration (IC50) with PBMC was found to be 240 nM; in the data set with Blood, 800 nM.
For the compound `CN1CC2(CNC(=O)c3c2[nH]c2c3CCc3cnc(-c4cccc(F)c4)c(F)c3-2)C1`, the solubility in data set [12] came out at 4 µg/mL (≈ 9.84 µM). Besides, the “log(permeability)” value in [3] is listed as -4.1. In [4], this compound displayed a logD of 3.2. The same compound yielded a bioavailability in data set [5] of 81%. The same compound had an AUC/dose with Rattus norvegicus [6] of 3486 nmol·h/L. The compound also came in with a clearance in data set [7] of 11 mL/min/kg. Besides, the IC50 was 550 nM in the data set with PBMC and 1650 nM in the data set with Blood.
